Molecular target: truncated form of human NaV 1.8 with full channel activity (Homo sapiens, UniProt Q9Y5Y9)
Assay: E-VIPR Assay Method B for detecting and measuring Nav inhibition (HEK cells, membrane potential FRET dyes, electrical stimulation)
Type: cell-based
Details: HEK cells expressing human NaV 1.8, Table 20B, read-out: Nav 1.8 MedChem Optical Assay EVIPR Assay Method B HS IC50
Description: [formula] where X is the ratio response of the test compound. […] E-VIPR Assay Method B for Detecting and Measuring Nav Inhibition Properties Sodium ion channels are voltage-dependent proteins that can be activated by inducing membrane voltage changes by applying electric fields. The electrical stimulation instrument and methods of use, referred to as E-VIPR, are described in International Publication No. WO 2002/008748 A3 and C.-J. Huang et al. Characterization of voltage-gated sodium channel blockers by electrical stimulation and fluorescence detection of membrane potential, 24 Nature Biotech. 439-46 (2006), both of which are incorporated by reference in their entirety. The instrument comprises a microtiter plate handler, an optical system for exciting the coumarin dye while simultaneously recording the coumarin and oxonol emissions, a waveform generator, a current- or voltage-controlled amplifier, and parallel electrode pairs that are inserted into assay plate wells. Under integrated computer control, this instrument passes user-programmed electrical stimulus protocols to cells within the wells of the microtiter plate. […] Sigma #F4135), 1% NEAA (Non-Essential Amino Acids, Life Tech #11140), 1% HEPES (Life Tech #15630), 1% Pen-Strep (Penicillin-Streptomycin; […] Cells were expanded in vented cap flasks, with 95% humidity and 5% CO2. Reagents and Stock Solutions: • 100 mg/mL Pluronic F-127 (Sigma #P2443), in dry DMSO • Compound Plates: […] 5% KIR 2.1 Bacmam virus (produced in-house), prepared as described in Section 3.3 of J. A. Fornwald et al., Gene Expression in Mammalian Cells Using BacMam, a Modified Baculovirus System, 1350 Methods in Molecular Biology 95-116 (2016), the entire contents of which are incorporated by reference. • 5 mM DiSBAC6(3) (a voltage sensitive oxonol acceptor) (Aurora #00-100-010) in dry DMSO • 5 mM CC2-DMPE (a membrane-bound coumarin phospholipid FRET donor) (Aurora #00-100-008) in dry DMSO • 89 mM VABSC-1 in H2O. […] The solution was made by adding 10% Pluronic F127 stock equal to combined volumes of CC2-DMPE and DiSBAC6(3). The order of preparation was first mix Pluronic and CC2-DMPE, then add DiSBAC6(3), then while vortexing add Bath1/β-Cyclodextrin. […] Assay Protocol: […] Final DMSO concentration for all wells in the assay was 0.625% (0.75% DMSO was supplemented to the Compound Loading Buffer for a final DMSO concentration of 0.625%). 2) Hexyl Dye Solution was prepared. 3) Cell plates were prepared. On the day of the assay, the media was aspirated, and the cells were washed three times with 80 μL of Bath-1 buffer, maintaining 25 μL residual volume in each well. 4) 25 μL per well of Hexyl Dye Solution was dispensed into the cell plates. The cells were incubated for 20 minutes at room temp or ambient conditions in darkness. 5) 80 μL per well of Compound Loading Buffer was dispensed into compound plates. […] The mixture was incubated for 30 minutes at room temp/ambient conditions. […] A pre-stimulus recording was performed for 0.5 seconds to obtain the un-stimulated intensities baseline. The stimulatory waveform was followed by 0.5 seconds of post-stimulation recording to examine the relaxation to the resting state. Data Analysis: Data were analyzed and reported as normalized ratios of emission intensities measured in the 460 nm and 580 nm channels. The response as a function of time was reported as the ratios obtained using the following formula: [formula] The data were further reduced by calculating the initial (Ri) and final (Rf) ratios. These were the average ratio values during part or all of the pre-stimulation period and during sample points during the stimulation period. The fluorescence ratio (Rf/Ri) was then calculated and reported as a function of time. Control responses were obtained by performing assays in the presence of the positive control, and in the absence of pharmacological agents (DMSO vehicle negative control). Responses to the negative (N) and positive (P) controls were calculated as above. […]

Chain of truncated form of human NaV 1.8 with full channel activity (Q9Y5Y9 126-1722 limits assumed): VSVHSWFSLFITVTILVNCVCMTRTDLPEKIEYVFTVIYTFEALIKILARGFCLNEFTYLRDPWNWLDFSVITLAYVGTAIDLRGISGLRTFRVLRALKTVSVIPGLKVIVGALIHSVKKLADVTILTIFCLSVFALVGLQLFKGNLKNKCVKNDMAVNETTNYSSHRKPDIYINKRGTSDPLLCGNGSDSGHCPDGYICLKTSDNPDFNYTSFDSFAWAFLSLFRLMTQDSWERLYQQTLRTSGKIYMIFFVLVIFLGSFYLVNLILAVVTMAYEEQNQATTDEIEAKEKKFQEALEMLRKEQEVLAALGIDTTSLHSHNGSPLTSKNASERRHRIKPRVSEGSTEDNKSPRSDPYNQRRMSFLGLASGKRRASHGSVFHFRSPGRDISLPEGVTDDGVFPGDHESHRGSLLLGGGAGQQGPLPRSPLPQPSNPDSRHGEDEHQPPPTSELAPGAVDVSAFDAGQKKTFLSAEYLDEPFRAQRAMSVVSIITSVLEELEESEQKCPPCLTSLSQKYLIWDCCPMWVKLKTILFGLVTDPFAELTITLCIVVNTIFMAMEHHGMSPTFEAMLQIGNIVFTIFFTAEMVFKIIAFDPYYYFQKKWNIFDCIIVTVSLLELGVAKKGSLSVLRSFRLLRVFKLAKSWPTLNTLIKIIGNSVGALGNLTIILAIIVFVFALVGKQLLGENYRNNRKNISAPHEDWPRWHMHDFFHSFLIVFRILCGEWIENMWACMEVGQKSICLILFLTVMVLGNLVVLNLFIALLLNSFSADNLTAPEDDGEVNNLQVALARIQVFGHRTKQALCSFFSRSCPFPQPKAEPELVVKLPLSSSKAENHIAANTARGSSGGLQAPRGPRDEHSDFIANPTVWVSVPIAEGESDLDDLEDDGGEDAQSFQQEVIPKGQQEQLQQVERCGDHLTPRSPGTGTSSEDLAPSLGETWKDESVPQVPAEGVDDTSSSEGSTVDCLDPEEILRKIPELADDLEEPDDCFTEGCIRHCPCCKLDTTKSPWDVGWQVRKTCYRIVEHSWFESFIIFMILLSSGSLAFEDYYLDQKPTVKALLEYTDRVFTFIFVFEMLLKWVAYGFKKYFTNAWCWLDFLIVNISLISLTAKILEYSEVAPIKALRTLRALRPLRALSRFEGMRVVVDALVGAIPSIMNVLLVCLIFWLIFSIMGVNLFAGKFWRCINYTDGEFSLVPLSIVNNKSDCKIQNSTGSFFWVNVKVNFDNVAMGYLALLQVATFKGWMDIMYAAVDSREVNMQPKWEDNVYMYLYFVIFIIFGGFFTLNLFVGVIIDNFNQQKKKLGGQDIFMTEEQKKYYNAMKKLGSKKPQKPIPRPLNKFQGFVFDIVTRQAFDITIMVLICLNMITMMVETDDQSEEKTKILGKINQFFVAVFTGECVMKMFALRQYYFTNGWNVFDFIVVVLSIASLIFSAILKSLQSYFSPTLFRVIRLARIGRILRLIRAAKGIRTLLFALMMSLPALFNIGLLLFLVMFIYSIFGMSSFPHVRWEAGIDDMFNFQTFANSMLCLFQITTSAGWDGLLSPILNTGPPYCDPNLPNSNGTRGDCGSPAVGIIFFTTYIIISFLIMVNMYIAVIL

Row | SMILES | IC50 [µM]
1 | NC(=O)c1cccc(NC(=O)c2cc(C(F)(F)F)ccc2Oc2ccccc2)c1 [Compound 277, N-(3-carbamoylphenyl)-2-phenoxy-5-(trifluoromethyl)benzamide] | 0.25
2 | COc1ccc(Oc2ccc(C(F)(F)F)cc2C(=O)Nc2cccc(C(N)=O)c2)c(Cl)c1 [Compound 279, N-(3-carbamoylphenyl)-2-(2-chloro-4-methoxyphenoxy)-5-(trifluoromethyl)benzamide] | 0.056
3 | Cc1cc(F)ccc1Oc1ccc(C(F)(F)F)cc1C(=O)Nc1ccc(Cl)c(C(N)=O)c1 [Compound 293, N-(3-carbamoyl-4-chlorophenyl)-2-(4-fluoro-2-methylphenoxy)-5-(trifluoromethyl)benzamide] | 0.033
4 | NC(=O)c1cc(NC(=O)c2c(Oc3ccc(F)cc3Cl)cccc2C(F)(F)F)ccc1Cl [Compound 254, N-(3-carbamoyl-4-chlorophenyl)-2-(2-chloro-4-fluorophenoxy)-6-(trifluoromethyl)benzamide] | 0.26
5 | Cc1ccc(C(N)=O)cc1NC(=O)c1c(Oc2ccc(F)cc2Cl)cccc1C(F)(F)F [Compound 255, N-(5-carbamoyl-2-methylphenyl)-2-(2-chloro-4-fluorophenoxy)-6-(trifluoromethyl)benzamide] | 7.2
6 | COc1cc(F)ccc1Oc1cc(Cl)c(Cl)cc1C(=O)Nc1ccc(C(N)=O)cc1 [Compound 274, N-(4-carbamoylphenyl)-4,5-dichloro-2-(4-fluoro-2-methoxy-phenoxy)benzamide] | 0.002
7 | CC(C)(C)c1ccc(C(=O)Nc2ccnc(C(N)=O)c2)c(Oc2ccc(C(F)(F)F)nc2)c1 [Compound 266, 4-(4-(tert-butyl)-2-((6-(trifluoromethyl)pyridin-3-yl)oxy)benzamido)picolinamide] | 17
8 | COc1ccc(NC(=O)c2cc(C(F)(F)F)ccc2Oc2ccc(F)cc2C)cc1C(N)=O [Compound 292, N-(3-carbamoyl-4-methoxyphenyl)-2-(4-fluoro-2-methylphenoxy)-5-(trifluoromethyl)benzamide] | 0.27
9 | NC(=O)c1cccc(NC(=O)c2c(Oc3ccc(F)cc3)cccc2C(F)(F)F)c1 [Compound 257, N-(3-carbamoylphenyl)-2-(4-fluorophenoxy)-6-(trifluoromethyl)benzamide] | 0.415
10 | COc1ccc(Oc2cc(C(F)(F)F)ccc2C(=O)Nc2cccc(C(N)=O)c2)c(Cl)c1 [Compound 299, N-(3-carbamoylphenyl)-2-[2-chloro-4-(methoxy)phenoxy]-4-(trifluoromethyl)benzamide] | 0.13
11 | Cc1cc(F)ccc1Oc1ccc(C(F)(F)F)cc1C(=O)Nc1ccc(C)c(C(N)=O)c1 [Compound 294, N-(3-carbamoyl-4-methylphenyl)-2-(4-fluoro-2-methylphenoxy)-5-(trifluoromethyl)benzamide] | 0.037
12 | COc1c(F)cccc1Oc1ccc(C(F)(F)F)cc1C(=O)Nc1cccc(C(N)=O)c1 [Compound 278, N-(3-carbamoylphenyl)-2-(3-fluoro-2-methoxyphenoxy)-5-(trifluoromethyl)benzamide] | 0.021
13 | Cc1cccc(Oc2ccc(F)cc2Cl)c1C(=O)Nc1cccc(C(N)=O)c1 [Compound 275, N-(3-carbamoylphenyl)-2-(2-chloro-4-fluoro-phenoxy)-6-methyl-benzamide] | 0.165
14 | Cc1cc(F)ccc1Oc1cccc(C(F)(F)F)c1C(=O)Nc1cccc(C(N)=O)c1 [Compound 258, N-(3-carbamoylphenyl)-2-(4-fluoro-2-methylphenoxy)-6-(trifluoromethyl)benzamide] | 0.085
15 | NC(=O)c1cccc(NC(=O)c2ccc(C(F)(F)F)cc2Oc2ccc(F)cc2)c1 [Compound 300, N-(3-carbamoylphenyl)-2-[4-fluorophenoxy]-4-(trifluoromethyl)benzamide] | 0.061
16 | CC(C)(C)c1ccc(C(=O)Nc2cc(C(N)=O)ccn2)c(Oc2ccc(C(F)(F)F)nc2)c1 [Compound 262] | > 25
17 | COc1ccc(NC(=O)c2c(Oc3ccc(F)cc3Cl)cccc2C(F)(F)F)cc1C(N)=O [Compound 253, N-(3-carbamoyl-4-methoxyphenyl)-2-(2-chloro-4-fluorophenoxy)-6-(trifluoromethyl)benzamide] | 0.88
18 | COc1ccc(Oc2cc(Cl)c(Cl)cc2C(=O)Nc2cccc(C(N)=O)c2)c(F)c1 [Compound 273, N-(3-carbamoylphenyl)-4,5-dichloro-2-(2-fluoro-4-methoxy-phenoxy)benzamide] | 0.03
19 | NC(=O)c1cccc(NC(=O)c2cc(Cl)c(Cl)cc2Oc2ccc(OC(F)(F)F)cc2)c1 [Compound 272, N-(3-carbamoylphenyl)-4,5-dichloro-2-[4-(trifluoromethoxy)phenoxy]benzamide] | 0.008
20 | COc1cc(F)ccc1Oc1cc(Cl)c(Cl)cc1C(=O)Nc1cccc(C(N)=O)c1 [Compound 270, N-(3-carbamoylphenyl)-4,5-dichloro-2-(4-fluoro-2-methoxy-phenoxy)benzamide] | 0.009
21 | NC(=O)c1cccc(NC(=O)c2cc(C(F)(F)F)ccc2Oc2ccccc2Cl)c1 [Compound 283, N-(3-carbamoylphenyl)-2-(2-chlorophenoxy)-5-(trifluoromethyl)benzamide] | 0.082
22 | Cc1cc(F)ccc1Oc1ccc(C(F)(F)F)cc1C(=O)Nc1cccc(C(N)=O)c1C [Compound 291, N-(3-carbamoyl-2-methylphenyl)-2-(4-fluoro-2-methylphenoxy)-5-(trifluoromethyl)benzamide] | 1.4
23 | Cc1cc(F)ccc1Oc1cc(Cl)c(Cl)cc1C(=O)Nc1cccc(C(N)=O)c1 [Compound 267, N-(3-carbamoylphenyl)-4,5-dichloro-2-(4-fluoro-2-methyl-phenoxy)benzamide] | 0.007
24 | NC(=O)c1cccc(NC(=O)c2c(Oc3ccc(F)cc3Cl)cccc2C(F)(F)F)c1 [Compound 260, N-(3-carbamoylphenyl)-2-(2-chloro-4-fluorophenoxy)-6-(trifluoromethyl)benzamide] | 0.166
25 | COc1ccc(Oc2ccc(C(F)(F)F)cc2C(=O)Nc2cccc(C(N)=O)c2)c(C)c1 [Compound 280, N-(3-carbamoylphenyl)-2-(4-methoxy-2-methylphenoxy)-5-(trifluoromethyl)benzamide] | 0.042
26 | COc1cc(Cl)ccc1Oc1cc(C(F)(F)C(F)(F)F)ccc1C(=O)Nc1cccc(C(N)=O)c1 [Compound 247, N-(3-carbamoylphenyl)-2-(4-chloro-2-methoxyphenoxy)-4-(1,1,2,2,2-pentafluoroethyl)benzamide] | 0.033
27 | Cc1cc(F)ccc1Oc1ccc(C(F)(F)F)cc1C(=O)Nc1ccc(C(N)=O)cc1 [Compound 297] | 0.04
28 | NC(=O)c1cccc(NC(=O)c2ccc(C(F)(F)C(F)(F)F)cc2Oc2ccc(F)cc2)c1 [Compound 249, N-(3-carbamoylphenyl)-2-(4-fluorophenoxy)-4-(1,1,2,2,2-pentafluoroethyl)benzamide] | 0.06
29 | COc1ccc(Oc2cc(C(F)(F)C(F)(F)F)ccc2C(=O)Nc2cccc(C(N)=O)c2)cc1F [Compound 250, N-(3-carbamoylphenyl)-2-(3-fluoro-4-methoxyphenoxy)-4-(1,1,2,2,2-pentafluoroethyl)benzamide] | 0.065
30 | COc1ccc(Oc2cc(Cl)c(Cl)cc2C(=O)Nc2cccc(C(N)=O)c2)cc1F [Compound 271, N-(3-carbamoylphenyl)-4,5-dichloro-2-(3-fluoro-4-methoxy-phenoxy)benzamide] | 0.02

— patent publication US12281057B2 (VERTEX PHARMACEUTICALS INCORPORATED, priority 2017, dated 2025)
